These results are taken from patent US11446298B2, “Pyrimidine derivatives” (Idorsia Pharmaceuticals Ltd, priority 2017, dated 2022).

Type in all cases: cell-based
For test [1], the target named is T1, PTGER2 (EP2) (Homo sapiens, UniProt P43116).
T1 construct: host or cells: HEK 293 (PathHunter, stably transfected)
Put plainly: hEP2 b-Arrestin Assay (PathHunter HEK 293 PTGER2 b-arrestin cells, PGE2 5 μM). The note with it: antagonistic activity, beta-arrestin assay, HEK 293 PTGER2 cells, PGE2 5 μM (EC80); read-out: hEP2 b-arr IC50. The gist of the method: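 PathHunter enzyme-fragment complementation in HEK 293 cells: compounds (10 μM-2 nM or 1 μM-0.2 nM) pre-incubated 15 min at 37 °C, then 5 μM PGE2 (EC80) for 120 min at 37 °C. Chemiluminescence read after 1 h detection; IC50 from duplicate dose-response fits, means of repeats.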

The target of test [2] is T2, PTGER4 (EP4) (Homo sapiens, UniProt P35408).
T2 construct: host or cells: HEK 293 (PathHunter, stably transfected)
The test can be described thus: hEP4 b-Arrestin Assay (PathHunter HEK 293 PTGER4 b-arrestin cells, PGE2 20 nM). The note with it: antagonistic activity, beta-arrestin assay, HEK 293 PTGER4 cells, PGE2 20 nM (EC80); read-out: hEP4 b-arr IC50. Here is the method:
The antagonistic activities of the compounds of formula (I) on the EP2 and EP4 receptors are also determined in accordance with the following experimental method.
The assay is using the PathHunter™ HEK 293 PTGER2 and PTGER4 b-arrestin cell lines from DiscoverX. The system is based on the Enzyme Fragment Complementation Technology. Two complementing fragments of the b-galactosidase enzyme are expressed within stably transfected cells. The larger portion of b-gal, termed EA for Enzyme Acceptor, is fused to the C-terminus of b-arrestin 2. The smaller fragment, termed ProLink™ tag, is fused to PTGER2 (EP2) or PTRGER4 (EP4) at the C-terminus. Upon activation, b-arrestin is recruited which forces the interaction of ProLink and EA, allowing complementation of the two fragments of b-gal and the formation of a functional enzyme which is capable of hydrolysing the substrate and generating a chemiluminescent signal.
The HEK 293 PTGER4 b-arrestin cells (DiscoverX 93-030-4C1) are detached from culture dishes with a cell dissociation buffer (Invitrogen, 13151-014), and collected in growing medium (GM: DMEM+Glutamax-I (Invitrogen 32430)/10% FCS, 1% Penicilin/streptomycin). 5000 cells per well of a 384 well plate (white with white bottom Greiner 781080) are seeded in 20 ul per well of GM. Plate is incubated at 37° C., 5% CO2 for 24 hours.
Stock solutions of test compounds are made at a concentration of 10 mM in DMSO, and serially diluted in DMSO to concentrations required for inhibition dose response curves (tested concentration range 10 μM-2 nM or 1 μM-0.2 nM).
PGE2 (Cayman 14010, stock solution: 100 μM in DMSO) is used as agonist at 20 nM final concentration, corresponding to EC80.
Five microliters of diluted compounds are transferred into the assay plate. Plate is pre-incubated 15 minutes at 37° C. Then five microliters of PGE2 (final conc. 20 nM) are transferred into the assay plate. Plate is incubated 120 minutes at 37° C.
PathHunter Glo Detection Kit components are thawed and mix according to manufacturer's instructions: 1 part Galacton Star Substrate with 5 parts Emerald II™ Solution, and 19 parts of PathHunter Cell Assay Buffer, respectively. Twelve μl of reagent are transferred to the assay plate and incubate for 1 hour at room temperature in the dark. Luminescence counts are read on a BMG Fluostar Optima reader according to manufacturer's instructions.
For each compound concentration calculate of the percentage of activity compared to DMSO control value as average ±STDEV. (each concentration is measured in duplicate)
IC50 values and curves are generated with XLfit software (IDBS) using Dose-Response One Site model 203. When compounds were measured multiple times, mean values are given.

Test [3] concerns the target T3, EP2 (Homo sapiens, UniProt P43116).
T3 construct: SF295 glioblastoma cells express high endogenous EP2 and no EP4; host or cells: SF295 glioblastoma cells
The test can be described thus: hEP2 cAMP Assay (SF295 glioblastoma cells, HTRF cAMP, PGE2 75 nM). The settings on record: antagonistic activity, PGE2 75 nM (EC80). Summed up: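 IC50 values derive from duplicate-point curves of percent cAMP relative to DMSO, read by HTRF (665/620 nm) against a cAMP calibrator. Compounds (30 μM to 0.01 nM ranges) were given 45 min at room temperature before 30 min with 75 nM PGE2, in EP2-only SF295 cells with 2 mM IBMX.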
For orientation: TR-FRET usually uses a lanthanide donor and a delayed reading to cut background.

Test [4] deals with T4, EP4 (Homo sapiens, UniProt P35408).
T4 construct: BT549 breast cancer cells, express high endogenous EP4 levels and very low EP2 levels; host or cells: BT549 breast cancer cells
The test can be described thus: hEP4 cAMP Assay (BT549 breast cancer cells, HTRF cAMP, PGE2 6 nM). The note with it: antagonistic activity, PGE2 6 nM (EC80). The gist of the method: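 BT549 cells (endogenous EP4, very low EP2) in HBSS/20 mM HEPES/0.2% BSA/2 mM IBMX, pre-incubated 45 min RT with compound, then stimulated 30 min RT with PGE2 6 nM (EC80). cAMP read by HTRF competitive immunoassay (665/620 nm), converted via calibrator to % of DMSO control; IC50 from duplicate dose-response curves.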

T2 sequence (P35408 whole entry): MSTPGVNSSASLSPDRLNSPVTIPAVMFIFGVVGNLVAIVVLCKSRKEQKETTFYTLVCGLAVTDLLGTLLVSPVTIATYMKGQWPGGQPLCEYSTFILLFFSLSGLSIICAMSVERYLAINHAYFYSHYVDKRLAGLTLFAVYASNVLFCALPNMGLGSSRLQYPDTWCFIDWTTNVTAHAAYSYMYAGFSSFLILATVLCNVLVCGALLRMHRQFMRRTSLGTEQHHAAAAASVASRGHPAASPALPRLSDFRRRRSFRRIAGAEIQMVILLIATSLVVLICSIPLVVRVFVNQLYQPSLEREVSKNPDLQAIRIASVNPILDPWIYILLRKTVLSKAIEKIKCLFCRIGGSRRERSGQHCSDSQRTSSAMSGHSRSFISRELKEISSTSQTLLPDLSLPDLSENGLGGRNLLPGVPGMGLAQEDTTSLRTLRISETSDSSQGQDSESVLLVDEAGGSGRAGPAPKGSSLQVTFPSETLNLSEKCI
T4 sequence (P35408 whole entry): as above
T3 sequence (P43116 whole entry): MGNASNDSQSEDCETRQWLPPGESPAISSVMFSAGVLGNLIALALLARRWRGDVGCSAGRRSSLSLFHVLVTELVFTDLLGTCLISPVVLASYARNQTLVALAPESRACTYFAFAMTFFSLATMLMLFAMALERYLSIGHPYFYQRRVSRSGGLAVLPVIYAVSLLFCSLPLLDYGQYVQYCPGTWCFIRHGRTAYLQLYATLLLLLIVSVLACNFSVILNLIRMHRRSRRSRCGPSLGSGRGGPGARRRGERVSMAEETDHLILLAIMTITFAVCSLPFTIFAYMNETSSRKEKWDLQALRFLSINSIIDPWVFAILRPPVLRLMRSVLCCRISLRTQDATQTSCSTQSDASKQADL
T1 sequence (P43116 whole entry): as above

Consider `CCOc1cc(-c2cc(NCCc3cc(F)cc4sccc34)ncn2)ccc1CC(=O)O` [Example 165, (2-Ethoxy-4-{6-[2-(6-fluoro-benzo[b]thiophen-4-yl)-ethylamino]-pyrimidin-4-yl}-phenyl)-acetic acid], for which the results for the IC50 in test [1] and in test [2] were 864 nM and 555 nM, respectively.
Take `CCOc1cc(-c2cc(NCCc3c(OC)ccc4c3ccn4C)ncn2)ccc1C(=O)O` [Example 186, 2-Ethoxy-4-{6-[2-(5-methoxy-1-methyl-1H-indol-4-yl)-ethylamino]-pyrimidin-4-yl}-benzoic acid]: the IC50 – broadly, the midpoint of a concentration-inhibition curve – in test [1] amounted to 9 nM; in test [2], 500 nM.
In the same order, the values of `CSc1cc(-c2cc(NCCc3cccc4c(F)cccc34)ncn2)ccc1C(=O)O` [Example 172, 4-{6-[2-(5-Fluoro-naphthalen-1-yl)-ethylamino]-pyrimidin-4-yl}-2-methylsulfanyl-benzoic acid] are 45 nM and 605 nM.
In the same order, the values of `CCOc1cc(-c2cc(NCCc3c(OC)ccc4ccccc34)ncn2)ccc1Cc1noc(=O)[nH]1` [Example 191, 3-(2-Ethoxy-4-{6-[2-(2-methoxy-naphthalen-1-yl)-ethylamino]-pyrimidin-4-yl}-benzyl)-[1,2,4]oxadiazol-5(4H)-one] are 23 nM and 219 nM.
In the same order, the values of `CSc1cc(-c2cc(NCCc3c(Br)cc(F)c4ccccc34)ncn2)ccc1C(=O)O` [Example 170, 4-{6-[2-(2-Bromo-4-fluoro-naphthalen-1-yl)-ethylamino]-pyrimidin-4-yl}-2-methylsulfanyl-benzoic acid] are 474 nM and 407 nM.
Turning to `CCOc1cc(-c2cc(NCCc3ccc(C)c4ccccc34)ncn2)ccc1OCC(=O)O` [Example 76, (2-Ethoxy-4-{6-[2-(4-methyl-naphthalen-1-yl)-ethylamino]-pyrimidin-4-yl}-phenoxy)-acetic acid], the half-maximal inhibitory concentration (IC50) came out at 259 nM in test [3], 116 nM in test [4] and 66 nM in test [2].
For `COc1ccc2c(ccn2C)c1CCNc1cc(-c2ccc(C(=O)O)c(SC)c2)ncn1` [Example 175, 4-{6-[2-(5-Methoxy-1-methyl-1H-indol-4-yl)-ethylamino]-pyrimidin-4-yl}-2-methylsulfanyl-benzoic acid], the IC50 in test [1] stood at 3 nM; in test [2], 245 nM.
In the same order, the values of `CCOc1cc(-c2cc(NCCc3c(OC)ccc4c3ccn4C)ncn2)ccc1CC(=O)O` [Example 167, (2-Ethoxy-4-{6-[2-(5-methoxy-1-methyl-1H-indol-4-yl)-ethylamino]-pyrimidin-4-yl}-phenyl)-acetic acid] are 69 nM and 758 nM.
In the same order, the values of `CSc1cc(-c2cc(NCCc3ccc(Br)c4ccn(C)c34)ncn2)ccc1C(=O)O` [Example 169, 4-{6-[2-(4-Bromo-1-methyl-1H-indol-7-yl)-ethylamino]-pyrimidin-4-yl}-2-methylsulfanyl-benzoic acid] are 230 nM and 350 nM.
Regarding `CCOc1cc(-c2cc(NCCc3c(OC)ccc4sccc34)ncn2)ccc1CC(=O)O` [Example 166, (2-Ethoxy-4-{6-[2-(5-methoxy-benzo[b]thiophen-4-yl)-ethylamino]-pyrimidin-4-yl}-phenyl)-acetic acid], the IC50 worked out at 51 nM in test [1] and 216 nM in test [2].
In the same order, the values of `CCOc1cc(-c2cc(NCCc3c(OC)ccc4sccc34)ncn2)ccc1C(=O)O` [Example 185, 2-Ethoxy-4-{6-[2-(5-methoxy-benzo[b]thiophen-4-yl)-ethylamino]-pyrimidin-4-yl}-benzoic acid] are 14 nM and 200 nM.
With `CCOc1ccc2sccc2c1CCNc1cc(-c2ccc(C(=O)O)c(SC)c2)ncn1` [Example 177, 4-{6-[2-(5-Ethoxy-benzo[b]thiophen-4-yl)-ethylamino]-pyrimidin-4-yl}-2-methylsulfanyl-benzoic acid], the IC50 in test [1] was determined as 4 nM; in test [2], 334 nM.
For `CCOc1cc(-c2cc(NCCc3ccc(C)c4ccccc34)ncn2)ccc1CC(=O)O` [Example 99, (2-Ethoxy-4-{6-[2-(4-methyl-naphthalen-1-yl)-ethylamino]-pyrimidin-4-yl}-phenyl)-acetic acid], the 50% inhibitory concentration (IC50) in test [3] was determined as 765 nM; in test [4], 225 nM; in test [2] it was 177 nM.
Take `CCOc1cc(-c2cc(NCCc3ccc(Br)c4ccn(C)c34)ncn2)ccc1CC(=O)O` [Example 161, (4-{6-[2-(4-Bromo-1-methyl-1H-indol-7-yl)-ethylamino]-pyrimidin-4-yl}-2-ethoxy-phenyl)-acetic acid]: the concentration for half-maximal inhibition (IC50) in test [1] was 628 nM; in test [2] it was 363 nM.
As to `Cc1c(C)n(C)c2c(CCNc3cc(-c4ccc(C(=O)O)c(OC5CCC5)c4)ncn3)cccc12` [Example 28, 2-Cyclobutoxy-4-{6-[2-(1,2,3-trimethyl-1H-indol-7-yl)-ethylamino]-pyrimidin-4-yl}-benzoic acid], the IC50 was 684 nM in test [3], 988 nM in test [4] and 1400 nM in test [2].
In the same order, the values of `CCOc1cc(-c2cc(NCCc3c(OC)ccc4c(OC)cccc34)ncn2)sc1C(=O)O` [Example 53, 5-{6-[2-(2,5-Dimethoxy-naphthalen-1-yl)-ethylamino]-pyrimidin-4-yl}-3-ethoxy-thiophene-2-carboxylic acid] are 305 nM, 17 nM and 5 nM.
In the same order, the values of `COc1ccc2cc(F)cc(CCNc3cc(-c4cc(C(F)(F)F)c(C(=O)O)s4)ncn3)c2n1` [Example 152, 5-{6-[2-(6-Fluoro-2-methoxy-quinolin-8-yl)-ethylamino]-pyrimidin-4-yl}-3-trifluoromethyl-thiophene-2-carboxylic acid] are 506 nM, 197 nM and 107 nM.
On to `CCOc1cc(-c2cc(NCCc3ccc(C(F)F)c4ccccc34)ncn2)ccc1C(=O)O` [Example 71, 4-{6-[2-(4-Difluoromethyl-naphthalen-1-yl)-ethylamino]-pyrimidin-4-yl}-2-ethoxy-benzoic acid], for which the concentration for half-maximal inhibition (IC50) in test [3] came to 374 nM; in test [4], 128 nM; in test [2], 91 nM.
In the same order, the values of `COc1ccc2ncccc2c1CCNc1cc(-c2ccc3c(=O)[nH]n(C)c3c2)ncn1` [Example 117, 6-{6-[2-(6-Methoxy-quinolin-5-yl)-ethylamino]-pyrimidin-4-yl}-1-methyl-1,2-dihydro-indazol-3-one] are 564 nM, 163 nM and 686 nM.
In the same order, the values of `CCOc1cc(-c2cc(NCCc3ccc(C(F)F)c4ccccc34)ncn2)ccc1OCC(=O)O` [Example 73, (4-{6-[2-(4-Difluoromethyl-naphthalen-1-yl)-ethylamino]-pyrimidin-4-yl}-2-ethoxy-phenoxy)-acetic acid] are 465 nM, 102 nM and 34 nM.
